Experimental findings from patent publication US8247609B2, “Aminoacid derivatives containing a disulfanyl group in the form of mixed disulfanyl and aminopeptidase N inhibitors” (Pharamleads, priority 2005, dated 2012) are described below.

Series [1] concerns male OF1 mice. The series is described as follows: Hot plate test (52° C., jump latency) in mice. The following applies: for ED50: Mus musculus. The series is classed as in vivo, mouse. Here is the method:
Hot plate test: this test relates to the licking and jumping reflex in mice on a plate heated at 52° C. (measurement of jump latency in the examples given). The results are expressed in % of maximum possible effect (% MPE), i.e., expressed as a percentage of analgesia, using the following equation:
Maximum latency time=240 seconds.
The results are expressed in term of mean±SEM. The differences observed are considered significant when the values of p are less than 0.05. The test used is an ANOVA test with a multiple comparison test.
Compound 15 is dissolved in a water/mannitol mixture (50 mg/ml). Jump latency times are measured 10 min after the injections by intravenous route.
Compound 15 is dissolved in a ethanol/Cremophor® EL/water mixture. Jump latency times are measured 10 min after intravenous injection.
Compound 15 is dissolved in an ethanol/PEG400/water 10/40/50 mixture.
Compounds 15 and A are dissolved in an ethanol/Cremophor EL/water 10/10/80 mixture. Jump latency times are measured 10 min after intravenous injection.
The analgesia produced by morphine or compound 15 in mice (male OF1) in the hot plate test (52° C.) was measured. Morphine in H2O/NaCl, 9/1000) or compound 15 dissolved in the vehicle EtOH/Cremophor El/water (10/10/80) is injected by IV. The results are measured 10 minutes after injection and latency time is 240 seconds (equation given in examples 15 and 17).
The analgesia produced by Δ^9 THC in mice (male OF1) in the plate hot test (52° C.) was measured. Δ^9 THC, dissolved in the vehicle EtOH/Cremophor EL/water (10/10/80), is injected by IV route. The results are measured 10 minutes after injection and latency time is 240 seconds (equation given in examples 15 and 17).
This test relates to the licking and jumping reflex in mice on a plate heated at 52° C. The results are expressed in % of maximum possible effect (% MPE), i.e., expressed as a percentage of analgesia, using the following equation:
Maximum latency time=240 s.
The mice weigh 25-30 grams.
Jump latency is measured 10 minutes after intravenous injection.
On the technique in general: Hot-plate and tail-flick tests time the reaction to a heat stimulus.

Series [2] has as its system rat (male Sprague Dawley) with an inflamed paw. Briefly: Vocalization threshold on paw pressure, carrageenan-inflamed paw. The format is in vivo. The following applies: 100 mg/kg per os, 180 min after carrageenan, measured 20 min after administration. As to the method: b) Antinociceptive effect of compound 15 (100 mg/kg par os) on vocalization threshold when pressure is applied to the paw of a rat (male Sprague Dawley) with an inflamed paw, inflammation being induced by intraplantar injection of carrageenan.
Compound 15 and a vehicle (ethanol/polyethylene glycol (PEG) 400/water, 10/40/50) are administered 180 min after intraplantar injection of carrageenan (1% in saline solution).
The baseline for vocalization threshold when pressure is applied to the paw is measured before inflammation (B) and for the inflamed paw 20 min after injection of compound 15 or the vehicle. The results are given in table 3 and are expressed as mean±SEM, n=10. The differences observed are considered significant when the values of p are less than 0.05.

A further series can be described thus: Solubility in solvents. The format is physicochemical.
Series [3] has as its system mice inoculated in their right paw with NCTC 2472 cells. The series is described as follows: Osteosarcoma-induced thermal hyperalgesia, unilateral hot plate test. The series is classed as in vivo, mouse. The source says: The comparison and possible facilitation of compound 15 analgesic effect by Gabapentin was investigated on the animal model of bone cancer induced by intraosteal inoculation of NCTC2472 tumor cells (Honoré P. et al., Neuroscience 98 (2000), 585-588 Mendez L. et al. J. Neurosci. Methods 113 (2002), 91-97).
The methods used to measure the analgenisc effects (antihyperalgesia and allodynia) of various compounds of this animal model have been described in details and are used (Menendez L. et al. Brain Res. 969 (2003), 102-109) in these series of experiments.
Osteosarcoma-induced thermal hyperalgesia measured by the unilateral hot plate test was inhibited by the oral administration of compound 15 (25 mg/kg). This inhibitory effect peaked 20-40 min after compound 15 administration, disappearing at time 60 (FIG. 4A).
At this concentration the antagonist is unable to enter the brain supporting a peripheral analgesic effects of compound 15. ** p≦0.01. […]

The subject of series [4] is male OF1 mice. Briefly: Hot plate test (52° C., jump latency) in mice. The format is in vivo, mouse. The following applies: after administration per os of 200 m/kg (FIG. 2b).

The structures appear in SMILES notation. Where two headings read alike, the source gives them in different places.

Regarding `CCOC(=O)OC(C)OC(=O)CNC(=O)C(CSSC[C@@H](N)CCSC)Cc1ccccc1` (stereo partly shown) [Compound 15], the “% analgesia” value turned out to be 46.4 ± 5.6 % in the series with male OF1 mice [1] (1 mg/kg IV, 10 min after injection (Table 6)); 56.3 ± 6.9 % with male OF1 mice [1] (2.5 mg/kg IV, 10 min after injection (Table 6)); 56.2 ± 6.9 % with male OF1 mice [1] (2.5 mg/kg IV, ethanol/Cremophor EL/water, 10 min after injection); 48.4 ± 10.2 % with male OF1 mice [1] (2.5 mg/kg IV, ethanol/Tween 20/water, 10 min after injection); 44.7 ± 6.2 % in the series on male OF1 mice [1] (2.5 mg/kg IV, ethanol/Tween 80/water, 10 min after injection); 87.6 ± 4.6 % in the series on male OF1 mice [1] (5 mg/kg IV, 10 min after injection (Table 6)). The “% analgesia” value with male OF1 mice [1] (5 mg/kg IV, ethanol/Cremophor EL/water 10/10/80, 10 min after injection (Table 5)) was 87.6 ± 4.6 %; with male OF1 mice [1] (10 mg/kg IV, water/mannitol vehicle, 10 min after injection, male mice), 33.4 ± 7.5 %; in the series on male OF1 mice [1] (20 mg/kg IV, water/mannitol vehicle, 10 min after injection, male mice), 59.2 ± 9.6 %; in the series with male OF1 mice [1] (40 mg/kg IV, water/mannitol vehicle, 10 min after injection, male mice), 90.2 ± 7.0 %. Further, the ED50 worked out at 1.9 ± 0.4 mg/kg in the series on male OF1 mice [1] (10 min, IV, ethanol/Cremophor EL/water, 10 min after injection (FIG. 1), read-out: ED50 (analgesic response)); 16.1 mg/kg in the series with male OF1 mice [1] (10 min, IV, water/mannitol vehicle, 10 min after injection, read-out: Effective dose 50, ED50); 135 mg/kg in the series on male OF1 mice [1] (per os 20 min before test, ethanol/PEG400/water 10/40/50 (FIG. 2a), read-out: ED50 (analgesic effect)). Also, in series [2], the Vocalization threshold was found to be 292.5 ± 20.1 g. Further, in “Solubility in solvents”, the “Solubility in ethanol/Tween®/water solvents” value is recorded as “soluble”. Besides, the “Time at which inhibitory effect disappears” value in series [3] (25 mg/kg oral) came to 60. The “Time of peak inhibitory effect after administration” value in series [3] (25 mg/kg oral) fell in the range of 20 to 40 min. Besides, in series [3] (25 mg/kg oral (FIG. 4A)), the Osteosarcoma-induced thermal hyperalgesia entry was “inhibited”. For the same compound, in series [3] (25 mg/kg p.o. 20 min before testing, naloxone-methiodide 2 mg/kg i.p. 20 min before testing (FIG. 5)), the “Antihyperalgesic effect in presence of naloxone-methiodide” value is given as “completely inhibited”. The “Effect on thermal latencies, inoculated versus control paws” value in series [3] (25 mg/kg p.o., 20 min after administration (FIG. 4B)) is given as “exclusively increases the latencies measured in the inoculated right paws”. The “Antihyperalgesic effect when administered alone” value in series [3] (compound 15 12.5 mg/kg 20 min before testing, or Gabapentin 6.25 mg/kg 60 min before testing) is “do not produce any antihyperalgesic effect”. In the series on male OF1 mice [4], the “Persistence of analgesic effect” value was “at least two hours”.

A word on the ED50: it is the midpoint of the dose-response relation.
